Results reported in patent US7666890B2, “Synthesis and herbicidal activity of 1- (2-substituted benzo[d]thiazol-5-yl)-1H-1,2,4-triazol-5(4H)-one derivatives” (Huazhong Normal University, priority 2007, dated 2010).

Experiments:
Assay in all cases: Test of herbicidal activities (greenhouse pot method)
Format in all cases: in vivo
Conditions in all cases: single dose 300 g ai./h, treated before/after germination, 15 days later, greenhouse pot
Amaranthus retroflexus = test system: Amaranthus retroflexus
Description: (§1) Garden soil was collected from regions where no pesticide is used and mixed uniformly with mountain soil and organic humus soil at a volume ratio of 1:1:1.
(§2) Multiple flowerpots each having a diameter of 9.5 cm and a depth of 8 cm were filled with the soil mixture to 3/4 volume. After water was added to the soil and the soil was completely wet, seeds of three grass weeds and three broadleaf weeds were inserted into the flowerpots (10-15 seeds for each weed). After seeding, the seeds were covered with fine oil mixed with sand and having a thickness of 1-3 cm. After the soil absorbed enough water and became saturated, excess water at the bottom of the flowerpot was drained, and the seeds were placed in a greenhouse for growth.
(§3) The weeds were watered every day so as to keep relative humidity of the soil at approximately 80%, growing temperature of 15-30° C., and air humidity above 50%. As the grass weeds grew to a 2-leaf stage and the broadleaf weeds was in a leaf period, spraying operation […] was performed on the stems and leafs. Planting before germination was performed before spraying. Soil processing was performed before the seeds of the weeds emerged.
(§4) Six target weeds comprising three grass weeds: Echinochloa crusgalli, Digiatria sanguinalis, Setaria viridis, along with three broadleaf weeds: Brassica juncea, Amaranthus retroflexus, Chenopodium album were treated before/after germination using a so-called “greenhouse pot” method with a single dose. A treating dose was 300 g ai./h. The process was repeated three times, and a blank control was used.
(§5) A 3WPSHZ-500 type automatic spraying tower with a spraying area of 0.132 m^2, a spray volume of 10 mL, working pressure of 0.2 MPa, and a liquid volume of 40% of maximum was used. After treatment, the weeds were placed in a greenhouse at a temperature of 15-30° C. Reaction symptoms of the weeds were regularly observed, and 15 days later, five reaction levels were determined according to the following inhibition intervals: 90≦A≦100%; 80≦B<90%, 60≦C<80%; 50≦D<60%, E<50%.

Brassica juncea = test system: Brassica juncea
Description: as §1, §2, §3, §4, §5

Chenopodium album = test system: Chenopodium album
Description: as §1, §2, §3, §4, §5

Digiatria sanguinalis = test system: Digiatria sanguinalis
Description: as §1, §2, §3, §4, §5

Echinochloa crusgalli = test system: Echinochloa crusgalli
Description: as §1, §2, §3, §4, §5

Setaria viridis = test system: Setaria viridis
Description: as §1, §2, §3, §4, §5

Compound	Herbicidal activity Amaranthus retroflexus (inhibition level) (Amaranthus retroflexus)	Herbicidal activity Brassica juncea (inhibition level) (Brassica juncea)	Herbicidal activity Chenopodium album (inhibition level) (Chenopodium album)	Herbicidal activity Digiatria sanguinalis (inhibition level) (Digiatria sanguinalis)	Herbicidal activity Echinochloa crusgalli (inhibition level) (Echinochloa crusgalli)	Herbicidal activity Setaria viridis (inhibition level) (Setaria viridis)
C=CCS(=O)(=O)c1nc2cc(-n3nc(C)n(C(F)F)c3=O)c(Cl)cc2s1 [Compound 71]	C (60 ≦ C < 80%)	B (80 ≦ B < 90%)	B (80 ≦ B < 90%)	C (60 ≦ C < 80%)	C (60 ≦ C < 80%)	B (80 ≦ B < 90%)
Cc1nn(-c2cc3nc(SCc4ccccc4F)sc3cc2F)c(=O)n1C(F)F [Compound 18]	A (90 ≦ A ≦ 100%)	B (80 ≦ B < 90%)	C (60 ≦ C < 80%)	A (90 ≦ A ≦ 100%)	C (60 ≦ C < 80%)	B (80 ≦ B < 90%)
CCOC(=O)CSc1nc2cc(-n3nc(C)n(C(F)F)c3=O)c(Br)cc2s1 [Compound 82]	A (90 ≦ A ≦ 100%)	B (80 ≦ B < 90%)	C (60 ≦ C < 80%)	A (90 ≦ A ≦ 100%)	A (90 ≦ A ≦ 100%)	A (90 ≦ A ≦ 100%)
Cc1nn(-c2cc3nc(SCc4ccc(Br)cc4F)sc3cc2F)c(=O)n1C(F)F [Compound 22]	B (80 ≦ B < 90%)	D (50 ≦ D < 60%)	D (50 ≦ D < 60%)	C (60 ≦ C < 80%)	C (60 ≦ C < 80%)	C (60 ≦ C < 80%)
Cc1nn(-c2cc3nc(S(C)(=O)=O)sc3cc2Cl)c(=O)n1C(F)F [Compound 68]	A (90 ≦ A ≦ 100%)	B (80 ≦ B < 90%)	C (60 ≦ C < 80%)	B (80 ≦ B < 90%)	A (90 ≦ A ≦ 100%)	B (80 ≦ B < 90%)
Cc1nn(-c2cc3nc(SCc4coc5ccccc5c4=O)sc3cc2Br)c(=O)n1C(F)F [Compound 28]	C (60 ≦ C < 80%)	A (90 ≦ A ≦ 100%)	C (60 ≦ C < 80%)	B (80 ≦ B < 90%)	B (80 ≦ B < 90%)	D (50 ≦ D < 60%)
C=CCSc1nc2cc(-n3nc(C)n(C(F)F)c3=O)c(Cl)cc2s1 [Compound 99]	B (80 ≦ B < 90%)	B (80 ≦ B < 90%)	C (60 ≦ C < 80%)	B (80 ≦ B < 90%)	A (90 ≦ A ≦ 100%)	B (80 ≦ B < 90%)
Cc1ccc(C[S+]([O-])c2nc3cc(-n4nc(C)n(C(F)F)c4=O)c(F)cc3s2)cc1 (stereo not drawn) [Compound 105]	B (80 ≦ B < 90%)	B (80 ≦ B < 90%)	B (80 ≦ B < 90%)	C (60 ≦ C < 80%)	D (50 ≦ D < 60%)	B (80 ≦ B < 90%)
CCOC(=O)C(C)Sc1nc2cc(-n3nc(C)n(C(F)F)c3=O)c(F)cc2s1 (stereo not drawn) [Compound 89]	B (80 ≦ B < 90%)	B (80 ≦ B < 90%)	C (60 ≦ C < 80%)	A (90 ≦ A ≦ 100%)	A (90 ≦ A ≦ 100%)	A (90 ≦ A ≦ 100%)
C=CCS(=O)(=O)c1nc2cc(-n3nc(C)n(C(F)F)c3=O)c(F)cc2s1 [Compound 66]	B (80 ≦ B < 90%)	B (80 ≦ B < 90%)	B (80 ≦ B < 90%)	B (80 ≦ B < 90%)	A (90 ≦ A ≦ 100%)	A (90 ≦ A ≦ 100%)
CCOC(=O)C(C)S(=O)(=O)c1nc2cc(-n3nc(C)n(C(F)F)c3=O)c(F)cc2s1 (stereo not drawn) [Compound 61]	A (90 ≦ A ≦ 100%)	A (90 ≦ A ≦ 100%)	B (80 ≦ B < 90%)	A (90 ≦ A ≦ 100%)	C (60 ≦ C < 80%)	C (60 ≦ C < 80%)
C=CCSc1nc2cc(-n3nc(C(F)(F)F)n(C(F)F)c3=O)c(Br)cc2s1 [Compound 128]	A (90 ≦ A ≦ 100%)	A (90 ≦ A ≦ 100%)	B (80 ≦ B < 90%)	C (60 ≦ C < 80%)	A (90 ≦ A ≦ 100%)	D (50 ≦ D < 60%)
CSc1nc2cc(-n3nc(C)n(C(F)F)c3=O)c(Br)cc2s1 [Compound 79]	B (80 ≦ B < 90%)	B (80 ≦ B < 90%)	C (60 ≦ C < 80%)	A (90 ≦ A ≦ 100%)	B (80 ≦ B < 90%)	B (80 ≦ B < 90%)
Cc1ccccc1C[S+]([O-])c1nc2cc(-n3nc(C)n(C(F)F)c3=O)c(F)cc2s1 (stereo not drawn) [Compound 104]	A (90 ≦ A ≦ 100%)	A (90 ≦ A ≦ 100%)	A (90 ≦ A ≦ 100%)	C (60 ≦ C < 80%)	C (60 ≦ C < 80%)	C (60 ≦ C < 80%)
Cc1nn(-c2cc3nc([S+]([O-])Cc4cccc(Cl)c4)sc3cc2F)c(=O)n1C (stereo not drawn) [Compound 103]	A (90 ≦ A ≦ 100%)	D (50 ≦ D < 60%)	A (90 ≦ A ≦ 100%)	B (80 ≦ B < 90%)	E (E < 50%)	B (80 ≦ B < 90%)
CCCSc1nc2cc(-n3nc(C)n(C(F)F)c3=O)c(Cl)cc2s1 [Compound 100]	A (90 ≦ A ≦ 100%)	A (90 ≦ A ≦ 100%)	A (90 ≦ A ≦ 100%)	B (80 ≦ B < 90%)	B (80 ≦ B < 90%)	C (60 ≦ C < 80%)
